US9050320B2, “Method for inducing lymphoid tissue and modulating intestinal homeostasis” (Institut Pasteur, priority 2009, dated 2015)

Legend:
[1] = tested on: isolated lymphoid follicles (ILFs); experiment: ILFs in SPF mice treated from birth with antibiotics in drinking water; format: in vivo; conditions: antibiotic in drinking water
Procedure: Antibodies, fusion proteins and antibiotics. Purified anti-CD11c (HL3) was purchased from BD Biosciences, phycoerythrin (PE)-, allophycocyanin (APC)- or biotin-conjugated anti-CD45R/B220 (RA3-6B2), and anti-CD45.2 (104) were purchased from eBiosciences, and purified anti-GFP (A-11122) and FITC-conjugated anti-rabbit polyclonal were purchased from Invitrogen. Neutralizing anti-CCL20 (114906) antibody was purchased from R&D Systems and 50-100 μg was injected i.p. in PBS twice a week. Human IgG1 and LTβR-Ig fusion protein have been previously described ^12; 100 μg protein was injected i.p. into pregnant mice 14.5 and 16.5 days after conception, or 50 μg protein was injected i.p. into newborn mice 1 day, 6 days and 12 days after birth, then 100 μg 15 days after birth. Vancomycin and colistin were purchased from Sigma and supplied to mice in the drinking water at a concentration of 500 mg/l and 1 g/l, respectively.
Immunofluorescence histology. […] Slides were examined under an Axiolmager M1 fluorescence microscope (Zeiss) equipped with a CCD camera and images were processed with AxioVision software (Zeiss). For the quantification of CPs and ILFs, 10-20 sections were cut at regular intervals through the whole thickness of flat ileal or colonic fragments of 2 cm in length and stained. CPs and ILFs were then counted under a fluorescence microscope.

Euprymna scolopes = conditions: squid light organ; cited from earlier work
[2] = tested on: isolated lymphoid follicles (ILFs); experiment: ILF formation in germfree mice given peptidoglycans in the drinking water; format: in vivo
Procedure: Peptidoglycans. Peptidoglycan were purified from E. coli strain MC1061 as previously described ^32. Highly purified PGN (total of 100 mg) was digested with mutanolysin (Sigma) ^33 to generate the entire range of muropeptides present in E. coli PGN (Supplementary FIG. 3b). Soluble muropeptides were separated by reverse phase HPLC, and the N-acetylglucosamyl-β1,4-N-acetylmuramyl-L-alanyl-D-γ-glytamyl-meso-diaminopimelate-D-alanine (GMtetraDAP) was collected and purity tested by a new HPLC analysis (Supplementary FIG. 3b). The nature of the GMtetraDAP was confirmed by MALDI-TOF mass spectrometry analysis as previously described ^33. Muramyldipeptide (MDP) was purchased from Sigma. Mice received MDP or GMtetraDAP in drinking water at a fixed concentration of 1 μM from the age of 2 weeks (Experiment I) or form birth (experiment II) for different periods of time.
Immunofluorescence histology. Intestines were opened and washed several times in PBS before fixation overnight at 4° C. in a fresh solution of 4% paraformaldehyde (Sigma) in PBS. The samples were then washed 1 day in PBS, incubated in a solution of 30% sucrose (Sigma) in PBS until the samples sank, embedded in OCT compound 4583 (Sakura Finetek), frozen in a bath of isopentane cooled with liquid nitrogen and stocked at −80° C. Frozen blocs were cut at 8 μm thickness and sections collected onto Superfrost/Plus slides (VWR). Slides were dried 1 hour and processed for staining, or stocked at −80° C. For staining, slides were first hydrated in PBS-XG, (PBS containing 0.1% triton X-100 and 1% normal bovine serum, VWR) for 5 min and blocked with 10% bovine serum in PBS-XG for 1 hour at room temperature. […] Slides were examined under an Axiolmager M1 fluorescence microscope (Zeiss) equipped with a CCD camera and images were processed with AxioVision software (Zeiss). For the quantification of CPs and ILFs, 10-20 sections were cut at regular intervals through the whole thickness of flat ileal or colonic fragments of 2 cm in length and stained. CPs and ILFs were then counted under a fluorescence microscope.

[3] = tested on: isolated lymphoid follicles (ILFs); experiment: ILF formation in germfree mice reconstituted with bacteria; format: in vivo; conditions: adult germfree mice reconstituted, 8 weeks
Procedure: Bacterial strains and culture. ASF bacteria include the Gram^+Clostridium propionicum (ASF 356), Lactobacillus acidophilus (ASF 360), Lactobacillus murinus (ASF 361), Eubacterium plexicaudatum (ASF 492), Firmicutes sp. (ASF 500) and Clostridium sp. (ASF 502), the Gram^−Mucispirillum schaedleri (ASF 457) and Bacteroides distasonis (ASF 519) (Supplementary FIG. 2) ^13,34, and were obtained from Taconic. The bacteria were cultured in anaerobic conditions on Schaedler agar (Difco laboratories) supplemented with 5% sterile sheep blood (Biorad) in an anaerobic Glove chamber containing a 5% CO2, 10% H2 and 85% N2 atmosphere (Jacomex). The media were pre-reduced by placing them inside the chamber 2 days prior to inoculation of bacteria. Cultures were incubated in the chamber at 37° C. for different periods of time (1-5 days) depending on the bacterial strain. […]
Bacterial colonization of germfree mice. […] Fecal pellets from inoculated mice were assessed for colonization by microscopic examination of smears and quantified by serial dilutions of stool spread on Schaedler agar plates or by quantitative PCR (qPCR). […] Mice were colonized to similar levels by strains MC1061 and MHD79 (˜2.5×10^9 cfu/g of feces) and analyzed 8 weeks after bacterial reconstitution. […]

Compound: CN[C@H](CC(C)C)C(=O)N[C@H]1C(=O)N[C@@H](CC(N)=O)C(=O)N[C@H]2C(=O)N[C@H]3C(=O)N[C@H](C(=O)N[C@H](C(=O)O)c4cc(O)cc(O)c4-c4cc3ccc4O)[C@H](O)c3ccc(c(Cl)c3)Oc3cc2cc(c3O[C@@H]2O[C@H](CO)[C@@H](O)[C@H](O)[C@H]2O[C@H]2C[C@](C)(N)[C@H](O)[C@H](C)O2)Oc2ccc(cc2Cl)[C@H]1O [vancomycin, Vancomycin]
- formation of ILFs [1]: formed significant numbers of ILFs, but lower numbers than in control mice

Compound: tracheal cytotoxin [TCT]
- hemocyte infiltration of crypts, epithelial apoptosis and morphogenesis (Euprymna scolopes): recapitulated by TCT alone

Compound: colistin
- formation of ILFs [1]: formed few ILFs

Compound: CC(=O)N[C@H]1[C@H](O[C@H]2[C@H](O[C@H](C)C(=O)N[C@@H](C)C(=O)N[C@H](CCC(=O)N[C@@H](CCC[C@@H](N)C(=O)O)C(=O)N[C@H](C)C(=O)O)C(=O)O)[C@@H](NC(C)=O)C(O)O[C@@H]2CO)O[C@H](CO)[C@@H](O)[C@@H]1O (stereo partly drawn) [GMtetraDAP, N-acetylglucosamyl-β1,4-N-acetylmuramyl-L-alanyl-D-γ-glytamyl-meso-diaminopimelate-D-alanine]
- ILFs in sections from the ileum (histology) ([2]; 8 weeks old germ free mice, in drinking water from birth): ILFs were numerous and showed some level of follicular organization
- ILFs in the colon ([2]; germfree mice, 1 μM in drinking water, 10 weeks of treatment starting from birth (Experiment II)): Significant numbers of ILFs were also detected
- induction of ILFs in the ileum ([2]; germfree mice, 1 μM in drinking water, after 6 weeks of treatment): induced a significant number of ILFs, mostly iILFs

Compound: Lactobacillus acidophilus
- induction of ileal and colonic ILFs [3]: induced no or few ILFs
